Test [1] has as its target T1, IN^PFV-viral DNA interaction (Human spumaretrovirus, UniProt P14350).
T1 construct: The full-length wt IN^PFV, the three single mutants of the catalytic triad; His; made in house; host or cells: E. coli BL21-CodonPlus (DE3)-RIPL
The test can be described thus: IN-viral DNA interaction by steady-state fluorescence anisotropy of Fl-DNA with increasing drug concentrations. The format is binding, prototype foamy virus (PFV). The following applies: 400 nM IN^PFV, 4 nM Fl-PFV^CAAT, 10 mM Mg2+, up to 20 µM drug; means INSTI did not prevent IN-DNA interactions. As to the method: Their incapability to prevent or disrupt IN-viral DNA complexes was consistently observed over the whole concentration range, regardless of the INSTI tested (Supplementary Fig. S7).
(§1) IN^PFV binding to DNA was measured by fluorescence anisotropy on a Beacon Instrument (Panvera, Madison, WI, USA) as previously described[25],[51], using a double-stranded 21-mer Fl-labeled DNA mimicking the PFV U5 LTR end also referred to as DNA#1 in Table 1 (labeled at the 5′-end of the reactive strand). IN binding to Fl-PFV^CAAT (or Fl-DNA#1) was compared to the binding to other DNA sequences (Fl-DNA#8 #9 #13). DNA annealing was obtained by mixing equimolar amounts of complementary strands in buffer A, heating to 85 °C for 5 min and slow cooling to 25 °C. DNA-binding experiments were performed at 25 °C in buffer A.
(§2) Figure S7. Differential effect of INSTI and INBI compounds on the INPFV-viral DNA interaction.
(§3) The formation of IN-DNA complexes was measured by steady-state fluorescence anisotropy using 400 nM INPFV and 4 nM Fl-PFVCAAT (also named Fl-DNA#1) in the presence of 10 mM Mg2+ and […]
(§4) In each plot, the starting r value (≈ 0.20) corresponds to the typical value found at saturating concentrations of IN (see Fig. S6).
(§5) The INBI compound FZ41, a member of the styrylquinoline family of inhibitors, was used as a control […]
(§6) show mean ± SD values from two independent experiments. […]

The next test relates to IN. The following applies: INSTIs; cited from earlier work.
The target of the next test is T2, wt IN^PFV (IN; WT) (Human spumaretrovirus, UniProt P14350).
T2 construct: gene pol; full-length, His-tagged, expressed in E. coli BL21-CodonPlus (DE3)-RIPL
Kind of test: Inhibition of IN-viral DNA binding by steady-state fluorescence anisotropy of 4 nM Fl-PFV^CAAT with 400 nM IN, 10 mM Mg2+, 25 °C. The format is biochemical. Particulars: n = 2; read-out: IC50 (IN-DNA interaction). As to the method:
as §2, §3, §4, §5, §6, §1

As to `COc1cc2c(cc1Cc1cccc(Cl)c1F)c(=O)c(C(=O)O)cn2[C@H](CO)C(C)C` [EVG, elvitegravir], in test [1], the “r value of Fl-DNA (IN-DNA complex) on increasing INSTI concentration” value is “remained constant”. The IC50 values result in the test with IN is “low-nanomolar range”.

By IC50 is commonly meant the concentration needed to halve the response being measured. Take `COc1cc(/C=C/c2ccc3ccc(C(=O)O)c(O)c3n2)cc(O)c1O` [FZ41, FZ41 (styrylquinoline family INBI compound)]: the IC50 at wt IN^PFV (IN; WT) was roughly 800 nM.

For `Cc1nnc(C(=O)NC(C)(C)c2nc(C(=O)NCc3ccc(F)cc3)c(O)c(=O)n2C)o1` [RAL, Raltegravir], in test [1], the “r value of Fl-DNA (IN-DNA complex) on increasing INSTI concentration” value is listed as “remained constant”. The IC50 values result in the test with IN is on record as “low-nanomolar range”.

These data come from article PMC5656594 (Scientific Reports, 2017).
